From PubChem BioAssay (NCI)
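Grown in 96-well plates, cells were treated for 48 hours with each compound at five concentrations. Insufficient inhibition: endpoint recorded as highest concentration tested. At the TGI there is no net growth.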

Legend:
Experiment in all cases: NCI tumour cell line growth inhibition, 48 h
HCT-116 colon = test system: HCT-116 colon
K-562 leukemia = test system: K-562 leukemia
IGROV1 ovarian = test system: IGROV1 ovarian
SW-620 colon = test system: SW-620 colon
HOP-92 NSCLC = test system: HOP-92 NSCLC
HL-60(TB) leukemia = test system: HL-60(TB) leukemia
PC-3 prostate = test system: PC-3 prostate
SF-295 CNS = test system: SF-295 CNS
RPMI-8226 leukemia = test system: RPMI-8226 leukemia
MDA-N = test system: MDA-N
SK-OV-3 ovarian = test system: SK-OV-3 ovarian
SNB-75 CNS = test system: SNB-75 CNS
HOP-62 NSCLC = test system: HOP-62 NSCLC
NCI-H23 lung = test system: NCI-H23 lung
SK-MEL-5 melanoma = test system: SK-MEL-5 melanoma
HCT-15 colon = test system: HCT-15 colon
CAKI-1 renal = test system: CAKI-1 renal
UACC-62 melanoma = test system: UACC-62 melanoma
KM12 colon = test system: KM12 colon
NCI-H226 lung = test system: NCI-H226 lung
U251 CNS = test system: U251 CNS
SNB-19 CNS = test system: SNB-19 CNS
M14 melanoma = test system: M14 melanoma
SK-MEL-2 melanoma = test system: SK-MEL-2 melanoma
HT29 colon = test system: HT29 colon
SF-539 CNS = test system: SF-539 CNS
MDA-MB-435 = test system: MDA-MB-435
A498 renal = test system: A498 renal
OVCAR-4 ovarian = test system: OVCAR-4 ovarian
NCI-H522 lung = test system: NCI-H522 lung
UO-31 renal = test system: UO-31 renal
SK-MEL-28 melanoma = test system: SK-MEL-28 melanoma
HCC-2998 colon = test system: HCC-2998 colon
SF-268 CNS = test system: SF-268 CNS
BT-549 breast = test system: BT-549 breast
T-47D breast = test system: T-47D breast
MALME-3M melanoma = test system: MALME-3M melanoma
HS 578T breast = test system: HS 578T breast
COLO 205 colon = test system: COLO 205 colon
SN12C renal = test system: SN12C renal
NCI-H460 lung = test system: NCI-H460 lung
DU-145 prostate = test system: DU-145 prostate
LOX IMVI melanoma = test system: LOX IMVI melanoma
OVCAR-8 ovarian = test system: OVCAR-8 ovarian
TK-10 renal = test system: TK-10 renal
UACC-257 melanoma = test system: UACC-257 melanoma
A549 NSCLC = test system: A549 NSCLC
MCF7 breast = test system: MCF7 breast
EKVX NSCLC = test system: EKVX NSCLC
ACHN renal = test system: ACHN renal
NCI/ADR-RES ovarian = test system: NCI/ADR-RES ovarian
OVCAR-5 ovarian = test system: OVCAR-5 ovarian
SR leukemia = test system: SR leukemia
MDA-MB-231 breast = test system: MDA-MB-231 breast
RXF 393 renal = test system: RXF 393 renal
OVCAR-3 ovarian = test system: OVCAR-3 ovarian
MOLT-4 leukemia = test system: MOLT-4 leukemia
786-0 renal = test system: 786-0 renal
CCRF-CEM leukemia = test system: CCRF-CEM leukemia

## C#CCSc1n[nH]c(-c2ccco2)n1
HCT-116 colon
  TGI: > 100 µM
K-562 leukemia
  TGI: > 100 µM
IGROV1 ovarian
  TGI: > 100 µM
SW-620 colon
  TGI: > 100 µM
HOP-92 NSCLC
  TGI: > 100 µM
HL-60(TB) leukemia
  TGI: > 100 µM
PC-3 prostate
  TGI: > 100 µM
SF-295 CNS
  TGI: > 100 µM
RPMI-8226 leukemia
  TGI: > 100 µM
MDA-N
  TGI: > 100 µM
SK-OV-3 ovarian
  TGI: > 100 µM
SNB-75 CNS
  TGI: > 100 µM
HOP-62 NSCLC
  TGI: > 100 µM
NCI-H23 lung
  TGI: > 100 µM
SK-MEL-5 melanoma
  TGI: > 100 µM
HCT-15 colon
  TGI: > 100 µM
CAKI-1 renal
  TGI: > 100 µM
UACC-62 melanoma
  TGI: > 100 µM
KM12 colon
  TGI: > 100 µM
NCI-H226 lung
  TGI: > 100 µM
U251 CNS
  TGI: > 100 µM
SNB-19 CNS
  TGI: > 100 µM
M14 melanoma
  TGI: > 100 µM
SK-MEL-2 melanoma
  TGI: > 100 µM
HT29 colon
  TGI: > 100 µM
SF-539 CNS
  TGI: > 100 µM
MDA-MB-435
  TGI: > 100 µM
A498 renal
  TGI: > 100 µM
OVCAR-4 ovarian
  TGI: > 100 µM
NCI-H522 lung
  TGI: > 100 µM
UO-31 renal
  TGI: 32 µM
SK-MEL-28 melanoma
  TGI: > 100 µM
HCC-2998 colon
  TGI: > 100 µM
SF-268 CNS
  TGI: > 100 µM
BT-549 breast
  TGI: > 100 µM
T-47D breast
  TGI: > 100 µM
MALME-3M melanoma
  TGI: > 100 µM
HS 578T breast
  TGI: > 100 µM
COLO 205 colon
  TGI: > 100 µM
SN12C renal
  TGI: > 100 µM
NCI-H460 lung
  TGI: > 100 µM
DU-145 prostate
  TGI: > 100 µM
LOX IMVI melanoma
  TGI: > 100 µM
OVCAR-8 ovarian
  TGI: > 100 µM
TK-10 renal
  TGI: > 100 µM
UACC-257 melanoma
  TGI: > 100 µM
A549 NSCLC
  TGI: > 100 µM
MCF7 breast
  TGI: > 100 µM
EKVX NSCLC
  TGI: > 100 µM
ACHN renal
  TGI: > 100 µM
NCI/ADR-RES ovarian
  TGI: > 100 µM
OVCAR-5 ovarian
  TGI: > 100 µM
SR leukemia
  TGI: > 100 µM
MDA-MB-231 breast
  TGI: > 100 µM
RXF 393 renal
  TGI: > 100 µM
OVCAR-3 ovarian
  TGI: > 100 µM
MOLT-4 leukemia
  TGI: > 100 µM
786-0 renal
  TGI: > 100 µM

## O=C(Nc1cccc(NC(=O)C(=O)C2CCC3=C(Sc4ccccc4N3)C2=O)n1)C(=O)C1CCC2=C(Sc3ccccc3N2)C1=O (stereo not given)
HCT-116 colon
  TGI: > 100 µM
K-562 leukemia
  TGI: > 100 µM
IGROV1 ovarian
  TGI: > 100 µM
SW-620 colon
  TGI: > 100 µM
HOP-92 NSCLC
  TGI: > 100 µM
HL-60(TB) leukemia
  TGI: > 100 µM
PC-3 prostate
  TGI: > 100 µM
SF-295 CNS
  TGI: > 100 µM
RPMI-8226 leukemia
  TGI: > 100 µM
MDA-N
  TGI: > 100 µM
SK-OV-3 ovarian
  TGI: > 100 µM
CCRF-CEM leukemia
  TGI: > 100 µM
SNB-75 CNS
  TGI: 70.2 µM
NCI-H23 lung
  TGI: > 100 µM
SK-MEL-5 melanoma
  TGI: > 100 µM
HCT-15 colon
  TGI: > 100 µM
CAKI-1 renal
  TGI: > 100 µM
UACC-62 melanoma
  TGI: > 100 µM
KM12 colon
  TGI: > 100 µM
NCI-H226 lung
  TGI: > 100 µM
U251 CNS
  TGI: > 100 µM
SNB-19 CNS
  TGI: > 100 µM
M14 melanoma
  TGI: > 100 µM
SK-MEL-2 melanoma
  TGI: > 100 µM
HT29 colon
  TGI: > 100 µM
SF-539 CNS
  TGI: 55.1 µM
MDA-MB-435
  TGI: > 100 µM
A498 renal
  TGI: > 100 µM
OVCAR-4 ovarian
  TGI: 71.7 µM
NCI-H522 lung
  TGI: > 100 µM
UO-31 renal
  TGI: > 100 µM
SK-MEL-28 melanoma
  TGI: > 100 µM
HCC-2998 colon
  TGI: > 100 µM
SF-268 CNS
  TGI: > 100 µM
BT-549 breast
  TGI: > 100 µM
T-47D breast
  TGI: > 100 µM
MALME-3M melanoma
  TGI: > 100 µM
HS 578T breast
  TGI: > 100 µM
COLO 205 colon
  TGI: > 100 µM
SN12C renal
  TGI: > 100 µM
NCI-H460 lung
  TGI: > 100 µM
DU-145 prostate
  TGI: > 100 µM
LOX IMVI melanoma
  TGI: > 100 µM
OVCAR-8 ovarian
  TGI: > 100 µM
UACC-257 melanoma
  TGI: > 100 µM
A549 NSCLC
  TGI: > 100 µM
MCF7 breast
  TGI: > 100 µM
EKVX NSCLC
  TGI: > 100 µM
ACHN renal
  TGI: > 100 µM
NCI/ADR-RES ovarian
  TGI: > 100 µM
OVCAR-5 ovarian
  TGI: > 100 µM
SR leukemia
  TGI: > 100 µM
MDA-MB-231 breast
  TGI: > 100 µM
RXF 393 renal
  TGI: > 100 µM
OVCAR-3 ovarian
  TGI: > 100 µM
MOLT-4 leukemia
  TGI: > 100 µM
786-0 renal
  TGI: > 100 µM

## CO/[N+]([O-])=C\C(=O)N/C=C/C(=O)O
HCT-116 colon
  TGI: > 100 µM
K-562 leukemia
  TGI: > 100 µM
IGROV1 ovarian
  TGI: > 100 µM
SW-620 colon
  TGI: > 100 µM
HOP-92 NSCLC
  TGI: > 100 µM
HL-60(TB) leukemia
  TGI: > 100 µM
PC-3 prostate
  TGI: > 100 µM
SF-295 CNS
  TGI: > 100 µM
RPMI-8226 leukemia
  TGI: > 100 µM
MDA-N
  TGI: > 100 µM
SK-OV-3 ovarian
  TGI: > 100 µM
CCRF-CEM leukemia
  TGI: > 100 µM
SNB-75 CNS
  TGI: > 100 µM
HOP-62 NSCLC
  TGI: > 100 µM
NCI-H23 lung
  TGI: > 100 µM
SK-MEL-5 melanoma
  TGI: > 100 µM
HCT-15 colon
  TGI: > 100 µM
CAKI-1 renal
  TGI: > 100 µM
UACC-62 melanoma
  TGI: > 100 µM
KM12 colon
  TGI: > 100 µM
NCI-H226 lung
  TGI: > 100 µM
U251 CNS
  TGI: > 100 µM
SNB-19 CNS
  TGI: > 100 µM
M14 melanoma
  TGI: > 100 µM
SF-539 CNS
  TGI: > 100 µM
MDA-MB-435
  TGI: > 100 µM
A498 renal
  TGI: > 100 µM
OVCAR-4 ovarian
  TGI: > 100 µM
NCI-H522 lung
  TGI: > 100 µM
UO-31 renal
  TGI: > 100 µM
SK-MEL-28 melanoma
  TGI: > 100 µM
HCC-2998 colon
  TGI: > 100 µM
SF-268 CNS
  TGI: > 100 µM
BT-549 breast
  TGI: > 100 µM
T-47D breast
  TGI: > 100 µM
MALME-3M melanoma
  TGI: > 100 µM
HS 578T breast
  TGI: > 100 µM
COLO 205 colon
  TGI: > 100 µM
SN12C renal
  TGI: > 100 µM
NCI-H460 lung
  TGI: > 100 µM
DU-145 prostate
  TGI: > 100 µM
LOX IMVI melanoma
  TGI: > 100 µM
OVCAR-8 ovarian
  TGI: > 100 µM
UACC-257 melanoma
  TGI: > 100 µM
MCF7 breast
  TGI: > 100 µM
EKVX NSCLC
  TGI: > 100 µM
ACHN renal
  TGI: > 100 µM
NCI/ADR-RES ovarian
  TGI: > 100 µM
OVCAR-5 ovarian
  TGI: > 100 µM
SR leukemia
  TGI: > 100 µM
MDA-MB-231 breast
  TGI: > 100 µM
RXF 393 renal
  TGI: > 100 µM
OVCAR-3 ovarian
  TGI: > 100 µM
MOLT-4 leukemia
  TGI: > 100 µM
786-0 renal
  TGI: > 100 µM
